ChEMBL document CHEMBL5236620, “Discovery of 2-Amino-7-sulfonyl-7H-pyrrolo[2,3-d]pyrimidine Derivatives as Potent Reversible FGFR Inhibitors with Gatekeeper Mutation Tolerance: Design, Synthesis, and Biological Evaluation” (J Med Chem, 2022)
Calls of active or inactive are those of the source. The calls are words filed in the database; no cut-off is given here.

Legend:
[1] = target: Fibroblast growth factor receptor 4 (Homo sapiens, UniProt P22455)
Description: Inhibition of FGFR4 (unknown origin) using TK as substrate incubated for 1 hr in presence of biotin/ATP by HTRF assay

Huh-7 = test: cells; conditions: Homo sapiens, Huh-7, 72 h
Description: Cytotoxicity against human Huh-7 cells assessed as inhibition of cell growth incubated for 72 hrs by CellTiter-Glo assay

BaF3 [2] = test: Cytotoxicity against mouse BaF3 cells assessed as inhibition of cell growth incubated for 72 hrs by CCK-8 assay; assay type: functional, cell-based; conditions: BaF3, 72 h
BaF3 [3] = test: Cytotoxicity against mouse BaF3 cells expressing wild type TEL-fused FGFR4 assessed as inhibition of cell growth incubated for 72 hrs by CCK-8 assay; assay type: functional, cell-based; conditions: BaF3, 72 h
BaF3 [4] = test: Cytotoxicity against mouse BaF3 cells expressing TEL-fused FGFR4 V550L mutant assessed as inhibition of cell growth incubated for 72 hrs by CCK-8 assay; assay type: functional, cell-based; conditions: BaF3, 72 h
in vitro [5] = conditions: human, liver microsomes
Description: Metabolic stability in human liver microsomes assessed as half life pretreated for 5 mins followed by NADPH addition and measured for 45 mins by LC/MS analysis

in vitro [6] = conditions: human, liver microsomes; remark: listed apart in the source
Description: Metabolic stability in human liver microsomes assessed as intrinsic clearance pretreated for 5 mins followed by NADPH addition and measured for 45 mins by LC/MS analysis

in vitro [7] = conditions: mouse, liver microsomes
Description: Metabolic stability in mouse liver microsomes assessed as half life pretreated for 5 mins followed by NADPH addition and measured for 45 mins by LC/MS analysis

in vitro [8] = conditions: mouse, liver microsomes; remark: listed apart in the source
Description: Metabolic stability in mouse liver microsomes assessed as intrinsic clearance pretreated for 5 mins followed by NADPH addition and measured for 45 mins by LC/MS analysis

in vitro [9] = conditions: human
Description: Metabolic stability in human assessed as intrinsic clearance

in vitro [10] = conditions: mouse
Description: Metabolic stability in mouse assessed as intrinsic clearance

[11] = target: Fibroblast growth factor receptor 2 (Homo sapiens, UniProt P21802)
Description: Inhibition of FGFR2 (unknown origin) using TK as substrate incubated for 1 hr in presence of biotin/ATP by HTRF assay

[12] = target: Fibroblast growth factor receptor 3 (Homo sapiens, UniProt P22607)
Description: Inhibition of FGFR3 (unknown origin) using TK as substrate incubated for 1 hr in presence of biotin/ATP by HTRF assay

[13] = target: Fibroblast growth factor receptor 4 (Mus musculus) (UniProt Q03142); conditions: BaF3, dose 50-400 nM, time 4.0 hrs
[14] = target: Fibroblast growth factor receptor 4 (Mus musculus) (UniProt Q03142); conditions: BaF3, dose 50-400 nM, time 4.0 hrs; remark: listed apart in the source
[15] = target: Fibroblast growth factor receptor 4 (Mus musculus) (UniProt Q03142); conditions: BaF3, dose 50-400 nM, time 4.0 hrs; remark: listed apart in the source
[16] = target: Janus Kinase (JAK) (Homo sapiens) (UniProt P52333+P23458+O60674+P29597); conditions: dose 500.0 nM
Description: Inhibition of JAK (unknown origin) at 500 nM

Fibroblast growth factor receptor 4, sequence (P22455 whole entry): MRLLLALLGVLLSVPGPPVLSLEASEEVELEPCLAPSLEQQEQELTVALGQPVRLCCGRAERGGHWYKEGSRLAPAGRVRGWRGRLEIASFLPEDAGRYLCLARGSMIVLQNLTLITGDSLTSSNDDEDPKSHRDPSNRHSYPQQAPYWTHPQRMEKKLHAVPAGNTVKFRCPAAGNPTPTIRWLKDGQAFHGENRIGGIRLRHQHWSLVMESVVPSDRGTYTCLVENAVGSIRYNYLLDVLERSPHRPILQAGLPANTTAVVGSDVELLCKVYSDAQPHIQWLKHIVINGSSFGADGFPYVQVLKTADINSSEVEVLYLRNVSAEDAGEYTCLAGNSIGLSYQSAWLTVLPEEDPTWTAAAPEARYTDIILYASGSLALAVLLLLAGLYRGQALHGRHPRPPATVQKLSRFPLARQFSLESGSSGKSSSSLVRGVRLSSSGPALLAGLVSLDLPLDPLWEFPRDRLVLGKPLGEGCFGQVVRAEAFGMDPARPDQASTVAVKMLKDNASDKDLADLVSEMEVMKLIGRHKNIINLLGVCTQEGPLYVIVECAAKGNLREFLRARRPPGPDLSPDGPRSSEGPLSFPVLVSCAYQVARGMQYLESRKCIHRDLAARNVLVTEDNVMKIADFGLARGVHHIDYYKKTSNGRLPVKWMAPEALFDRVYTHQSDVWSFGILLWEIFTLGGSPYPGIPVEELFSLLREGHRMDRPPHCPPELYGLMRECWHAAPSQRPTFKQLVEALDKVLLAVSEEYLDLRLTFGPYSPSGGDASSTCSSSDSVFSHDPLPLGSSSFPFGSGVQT
Fibroblast growth factor receptor 4 (Mus musculus), sequence (Q03142 17-799 limits assumed): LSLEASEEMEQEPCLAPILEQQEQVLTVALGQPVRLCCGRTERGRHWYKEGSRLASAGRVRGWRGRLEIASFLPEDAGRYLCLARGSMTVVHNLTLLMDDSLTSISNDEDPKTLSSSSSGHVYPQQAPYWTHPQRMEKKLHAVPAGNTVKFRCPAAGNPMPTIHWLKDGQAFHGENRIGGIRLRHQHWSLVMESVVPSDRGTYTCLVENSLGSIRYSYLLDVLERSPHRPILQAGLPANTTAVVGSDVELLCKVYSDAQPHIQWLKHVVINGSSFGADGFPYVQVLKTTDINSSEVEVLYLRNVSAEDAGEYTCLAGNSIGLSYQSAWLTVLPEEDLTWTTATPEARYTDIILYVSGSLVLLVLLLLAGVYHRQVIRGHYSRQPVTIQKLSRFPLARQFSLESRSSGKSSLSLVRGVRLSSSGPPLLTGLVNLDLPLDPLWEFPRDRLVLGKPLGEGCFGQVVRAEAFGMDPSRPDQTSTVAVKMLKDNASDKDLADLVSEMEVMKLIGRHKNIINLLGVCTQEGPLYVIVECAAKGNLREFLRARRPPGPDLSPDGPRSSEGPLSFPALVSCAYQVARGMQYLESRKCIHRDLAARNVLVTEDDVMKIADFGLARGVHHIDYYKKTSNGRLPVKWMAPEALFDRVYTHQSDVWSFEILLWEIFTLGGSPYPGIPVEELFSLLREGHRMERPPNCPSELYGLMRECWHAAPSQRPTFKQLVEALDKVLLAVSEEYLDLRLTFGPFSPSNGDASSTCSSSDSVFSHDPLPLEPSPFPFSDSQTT
Fibroblast growth factor receptor 3, sequence (P22607 whole entry): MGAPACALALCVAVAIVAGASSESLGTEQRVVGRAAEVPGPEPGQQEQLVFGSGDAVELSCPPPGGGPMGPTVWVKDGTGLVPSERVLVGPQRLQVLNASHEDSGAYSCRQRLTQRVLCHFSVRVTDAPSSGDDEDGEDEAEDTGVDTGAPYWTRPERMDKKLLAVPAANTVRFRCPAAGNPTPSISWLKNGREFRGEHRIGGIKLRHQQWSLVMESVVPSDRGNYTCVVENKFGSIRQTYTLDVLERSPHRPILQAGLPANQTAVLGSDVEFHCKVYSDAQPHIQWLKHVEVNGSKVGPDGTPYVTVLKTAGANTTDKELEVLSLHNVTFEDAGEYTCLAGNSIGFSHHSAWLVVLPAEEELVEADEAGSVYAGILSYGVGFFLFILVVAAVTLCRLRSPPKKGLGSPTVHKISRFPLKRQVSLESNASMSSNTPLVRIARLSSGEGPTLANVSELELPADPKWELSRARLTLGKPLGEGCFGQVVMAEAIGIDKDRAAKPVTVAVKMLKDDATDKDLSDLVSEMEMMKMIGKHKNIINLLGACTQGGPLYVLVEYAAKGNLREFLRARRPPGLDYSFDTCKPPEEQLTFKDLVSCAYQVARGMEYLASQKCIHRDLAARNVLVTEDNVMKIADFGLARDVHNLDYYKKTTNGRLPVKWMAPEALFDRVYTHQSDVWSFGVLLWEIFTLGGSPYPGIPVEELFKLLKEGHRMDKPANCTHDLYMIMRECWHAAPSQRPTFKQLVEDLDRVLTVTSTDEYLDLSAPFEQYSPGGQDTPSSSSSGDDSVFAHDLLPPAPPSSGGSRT
Fibroblast growth factor receptor 2, sequence (P21802 whole entry): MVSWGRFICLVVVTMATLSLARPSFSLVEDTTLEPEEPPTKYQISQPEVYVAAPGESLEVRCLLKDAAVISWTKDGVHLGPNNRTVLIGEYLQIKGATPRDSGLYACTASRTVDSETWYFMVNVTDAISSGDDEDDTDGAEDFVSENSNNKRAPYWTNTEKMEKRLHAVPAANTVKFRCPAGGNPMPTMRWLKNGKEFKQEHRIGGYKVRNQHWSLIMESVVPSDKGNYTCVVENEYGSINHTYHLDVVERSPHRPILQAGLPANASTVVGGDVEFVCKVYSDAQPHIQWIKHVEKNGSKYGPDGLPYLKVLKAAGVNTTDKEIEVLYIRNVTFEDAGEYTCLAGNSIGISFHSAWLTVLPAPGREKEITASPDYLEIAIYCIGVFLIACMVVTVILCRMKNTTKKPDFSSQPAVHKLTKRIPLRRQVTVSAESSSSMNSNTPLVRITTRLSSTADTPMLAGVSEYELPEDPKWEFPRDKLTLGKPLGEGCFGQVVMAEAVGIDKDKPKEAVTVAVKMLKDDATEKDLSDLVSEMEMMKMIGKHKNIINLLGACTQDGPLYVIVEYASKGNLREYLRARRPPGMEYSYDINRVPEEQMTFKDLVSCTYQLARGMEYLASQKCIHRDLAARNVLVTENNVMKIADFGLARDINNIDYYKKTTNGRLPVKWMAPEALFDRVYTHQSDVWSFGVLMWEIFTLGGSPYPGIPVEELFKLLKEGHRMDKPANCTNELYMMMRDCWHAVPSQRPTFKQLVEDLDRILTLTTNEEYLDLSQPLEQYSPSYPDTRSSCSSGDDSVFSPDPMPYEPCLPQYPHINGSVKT

Compound	IC50 [1] [nM]	IC50 (Huh-7) [nM]	other results
COc1cc(OC)cc(S(C)(=O)=Nc2cc(Nc3ccc(N4CCOCC4)cc3)ncc2C#N)c1 (stereo not given)	2190	–	–
COc1cccc(S(=O)(=O)n2ccc3cnc(Nc4ccc(N5CCOCC5)cc4)cc32)c1	198	–	–
CN1CCN(c2ccc(Nc3ncc4ccn(S(=O)(=O)c5cccnc5)c4n3)cc2)CC1	33	383	–
CN1CCN(c2ccc(Nc3ncc4ccn(S(=O)(=O)c5ccccc5Cl)c4n3)cc2)CC1	33.6	451	–
C=CC(=O)N[C@H]1CCOC[C@H]1Nc1ncc2cc(-c3c(Cl)c(OC)cc(OC)c3Cl)ccc2n1 [FISOGATINIB]	5.3	45.9	–
COc1ccc(S(=O)(=O)n2ccc3cnc(Nc4ccc(N5CCN(C)CC5)cc4)nc32)cc1	893	–	–
COc1cccc(S(=O)(=O)c2c[nH]c3cnc(Nc4ccc(N5CCOCC5)cc4)nc23)c1	1970	–	–
COc1cccc(S(=O)(=O)n2ccc3cnc(Nc4ccc(CN5CCN(C)CC5)cc4)nc32)c1	132	–	–
COc1cccc(S(=O)(=O)n2ccc3cnc(Nc4ccc(N(C)CCN(C)C)cc4)nc32)c1	17.1	811	–
CN1CCN(c2ccc(Nc3ncc4ccn(S(=O)(=O)C5CCCCC5)c4n3)cc2)CC1	615	–	–
CN1CCN(c2ccc(Nc3ncc4ccn(S(=O)(=O)c5ccccc5)c4n3)cc2)CC1	74.7	–	–
COc1cccc(S(C)(=O)=Nc2cc(Nc3ccc(N4CCOCC4)cc3)ncc2C#N)c1 (stereo not given)	346	–	–
CN1CCN(c2ccc(Nc3ncc4ccn(S(=O)(=O)c5cc(F)cc(F)c5)c4n3)cc2)CC1	12.7	191	IC50 (BaF3 [2]): > 2000 nM; IC50 (BaF3 [3]): 64 nM; IC50 (BaF3 [4]): 376 nM; half-life at 50 min (in vitro [5]): 35.2 min; microsomal CLint at 50 min (in vitro [6]): 54.8 µL/min/mg; half-life at 50 min (in vitro [7]): 4.4 min; microsomal CLint at 50 min (in vitro [8]): 319 µL/min/mg; CLint scaled (in vitro [9]): 49.4 mL/min/kg; CLint scaled (in vitro [10]): 1250 mL/min/kg
CN1CCN(c2ccc(Nc3ncc4ccn(S(=O)(=O)c5ccn(C)n5)c4n3)cc2)CC1	127	–	–
COc1cccc(S(=O)(=O)n2ccc3cnc(Nc4ccc(C(=O)N5CCN(C)CC5)cc4)nc32)c1	112	449	–
COc1cccc(S(=O)(=O)c2cnc3cnc(Nc4ccc(N5CCOCC5)cc4)cn23)c1	4770	–	–

Compound	IC50 [1] [nM]	IC50 (Huh-7) [nM]	other results
CN1CCN(c2ccc(Nc3ncc4ccn(S(=O)(=O)c5cccc(OC(F)(F)F)c5)c4n3)cc2)CC1	703	–	–
COc1cccc(S(=O)(=O)n2ccc3cnc(Nc4ccc(N5CCC(N(C)C)C5)cc4)nc32)c1 (stereo not given)	41.8	301	–
COc1cccc(S(=O)(=O)n2ccc3cnc(Nc4ccc(N5CCC(N(C)C)CC5)cc4)nc32)c1	13.9	310	–
COc1cccc(S(=O)(=O)n2ccc3cnc(Nc4ccc(N5CCN(C)CC5)cc4)nc32)c1	10.4	131	IC50 (BaF3 [2]): > 2000 nM; IC50 (BaF3 [3]): 71.8 nM; IC50 (BaF3 [4]): 534 nM; half-life at 50 min (in vitro [5]): 39 min; microsomal CLint at 50 min (in vitro [6]): 35.5 µL/min/mg; half-life at 50 min (in vitro [7]): 4.2 min; microsomal CLint at 50 min (in vitro [8]): 165 µL/min/mg; CLint scaled (in vitro [9]): 32 mL/min/kg; CLint scaled (in vitro [10]): 654 mL/min/kg
COc1cccc(S(=O)(=O)n2ccc3cnc(Nc4ccc(N5C[C@@H]6C[C@H]5CN6C)cc4)nc32)c1	47.5	166	IC50 (BaF3 [2]): > 2000 nM; IC50 (BaF3 [3]): 126 nM; IC50 (BaF3 [4]): 632 nM; half-life at 50 min (in vitro [5]): 224 min; microsomal CLint at 50 min (in vitro [6]): 6.4 µL/min/mg; half-life at 50 min (in vitro [7]): 13.1 min; microsomal CLint at 50 min (in vitro [8]): 106 µL/min/mg; CLint scaled (in vitro [9]): 6 mL/min/kg; CLint scaled (in vitro [10]): 416 mL/min/kg
COc1cccc(S(=O)(=O)Nc2cc(Nc3ccc(N4CCOCC4)cc3)ncc2C#N)c1	> 10000	–	–
COc1ccc(Cl)c(S(=O)(=O)n2ccc3cnc(Nc4ccc(N5CCN(C)CC5)cc4)nc32)c1	29	298	–
COc1cccc(S(=O)(=O)n2ccc3cnc(Nc4ccc(N5CCOCC5)cc4)nc32)c1	114	–	–
COc1ccccc1S(=O)(=O)n1ccc2cnc(Nc3ccc(N4CCN(C)CC4)cc3)nc21	16.1	240	–
CN1CCN(c2ccc(Nc3ncc4ccn(S(=O)(=O)c5cccc(F)c5)c4n3)cc2)CC1	60.5	–	–
CN1CCN(c2ccc(Nc3ncc4ccn(S(=O)(=O)c5ccccc5OC(F)(F)F)c4n3)cc2)CC1	36.8	444	–
CN1CCN(c2ccc(Nc3ncc4ccn(S(=O)(=O)c5c(Cl)cccc5Cl)c4n3)cc2)CC1	55	377	–
CN1CCN(c2ccc(Nc3ncc4ccn(S(=O)(=O)c5cccc6c5OCO6)c4n3)cc2)CC1	29.5	534	–
COc1cccc(S(=O)(=O)n2ccc3cnc(Nc4ccc(N5CCN(C)CC5)cc4)nc32)c1OC	1340	–	–
COc1cccc(S(=O)(=O)n2ccc3cnc(Nc4ccc(N5C[C@@H](C)N[C@@H](C)C5)cc4)nc32)c1	17.1	–	IC50 [11]: 46.7 nM; IC50 [12]: 29.6 nM; inhibition [13]: Dose-Dependent Effect; inhibition [14]: Dose-Dependent Effect; inhibition [15]: Dose-Dependent Effect; inhibition [16]: Active
COc1ccc(OC)c(S(=O)(=O)n2ccc3cnc(Nc4ccc(N5CCN(C)CC5)cc4)nc32)c1	8.7	244	IC50 (BaF3 [2]): > 2000 nM; IC50 (BaF3 [3]): 58.3 nM; IC50 (BaF3 [4]): 405 nM; half-life at 50 min (in vitro [5]): 47.7 min; microsomal CLint at 50 min (in vitro [6]): 40.5 µL/min/mg; half-life at 50 min (in vitro [7]): 4.9 min; microsomal CLint at 50 min (in vitro [8]): 283 µL/min/mg; CLint scaled (in vitro [9]): 36.5 mL/min/kg; CLint scaled (in vitro [10]): 1110 mL/min/kg
